Test results reported in patent US4042711A, “Derivatives of biphenyloxy-lower alkanoic acids, salts thereof and their use as antihyperlipidemics” (Boehringer Ingelheim GmbH, priority 1975, dated 1977).

Columns and labels:
white mice = test: Acute toxicity, oral; assay type: in vivo; conditions: 14 days, at the dose given as LD50
Protocol: (§1) The above pharmacologicaly activity of the compounds of this invention, as well as their acute toxicities, were ascertained along with those of the three antihyperlipidemic compounds of the prior art by the standard test methods described below.
(§2) The acute toxicity was determined on groups of 5 or 6 white mice each, after oral administration of the test compound at dosage levels of 2.5 gm/kg, 5 gm/kg and 10 gm/kg (observation time 14 days).

Acute toxicity, oral = assay type: in vivo; conditions: mouse, in vivo, white mice, observation time 14 days
Protocol: as §1, §2

[1] = tested on: Cholesterol level in the serum; test: Lipid level lowering activity: serum cholesterol depression in normolipemic rats; assay type: in vivo, male normolipemic rats; conditions: Rattus norvegicus, oral, by regression analysis; for ED15: dose leading to 15% depression of serum cholesterol; for ED20: dose leading to 20% depression of serum cholesterol
Protocol: as §1
The test compound was administered twice by an esophageal tube at 20 hours' interval to male normolipemic rats having a body weight of 250-300 gm. When the test began, the animals were deprived of food, but water was freely accessible to them. 28 and 44 hours later the serum cholesterol and triglyceride-levels were determined. The measurement of cholesterol and triglycerides was effected simultaneously, using an autoanalyzer; the percentage depression was calculated, compared with a control group treated with placebo.
The cholesterol-lowering activity of the test compound was observed after oral administration of one dose and after oral administration of various doses.

[2] = as disclosed in prior-art patents; cited from earlier work
[3] = see Therapie 27, 385 (1972); cited from earlier work
[4] = 28 hours after beginning of the test
[5] = 44 hours after beginning of the test

Compound	animals died (white mice)	LD50 at 336 h (Acute toxicity, oral)	ED15 [1, 4]	ED20 [1, 4]	ED15 [1, 5]	ED20 [1, 5]	antihypercholesteremic / antihyperlipidemic properties [2]	Toxicity (LD50) [3]
CCOC(=O)C(C)(C)Oc1ccc(CCNC(=O)c2cc(Cl)ccc2OC)cc1 [E, ethyl 2-methyl-2-{4-[2-(2-methoxy-5-chloro-benzamido)-ethyl]-phenoxy}-propionate]	3 out of 6	2500 mg/kg	3.6 mg/kg	5 mg/kg	3.6 mg/kg	5 mg/kg	exhibits similar properties	
COc1ccc(Cl)cc1C(=O)NCCc1ccc(-c2ccc(OC(C)(C)C(=O)O)cc2)cc1 [A, 2-methyl-2-{4-[2-(2-methoxy-5-chloro-benzamido)-ethyl]-biphenyl-4'-oxy}-propionic acid]	0 out of 5	> 10000 mg/kg		16 mg/kg		4.41 mg/kg		
COc1ccccc1C(=O)NCCc1ccc(-c2ccc(OC(C)(C)C(=O)O)cc2)cc1 [B, 2-methyl-2-{4-[2-(2-methoxy-benzamido)-ethyl]-biphenyl-4'-oxy}-propionic a cid]	1 out of 5	> 2500 mg/kg		3.1 mg/kg		0.59 mg/kg		
COC(=O)C(C)(C)Oc1ccc(-c2ccc(Cl)cc2)cc1 [D, methyl 2-[4-(4-chlorophenyl)-phenoxy]-2-methyl-propionate]	3 out of 5	5000 mg/kg	6.9 mg/kg	11 mg/kg	4.4 mg/kg	5.6 mg/kg	has antihyperlipidemic properties	
CCOC(=O)C(C)(C)Oc1ccc(Cl)cc1 [C, ethyl 2-(4-chlorophenoxy)-2-methyl propionate]			15 mg/kg	22 mg/kg	25 mg/kg	32 mg/kg	has antihypercholesteremic properties	1.7 gm/kg
